Reference: ChEMBL document CHEMBL4052712, “Design and optimization of highly-selective, broad spectrum fungal CYP51 inhibitors” (Bioorg Med Chem Lett, 2017)

How the values were obtained:
[1] = Half life in Swiss albino mouse kidney at 5 mg/kg, po measured during 0.5 to 48 hrs post dose by HPLC/MS/MS method; type: ADME, organism-based
[2] = biological target: T1, Aromatase (Homo sapiens, UniProt P11511); assay: Inhibition of CYP19 in human hepatocyte microsomes using testosterone substrate by HPLC/MS/MS method; type: ADME
T1 sequence (P11511 whole entry): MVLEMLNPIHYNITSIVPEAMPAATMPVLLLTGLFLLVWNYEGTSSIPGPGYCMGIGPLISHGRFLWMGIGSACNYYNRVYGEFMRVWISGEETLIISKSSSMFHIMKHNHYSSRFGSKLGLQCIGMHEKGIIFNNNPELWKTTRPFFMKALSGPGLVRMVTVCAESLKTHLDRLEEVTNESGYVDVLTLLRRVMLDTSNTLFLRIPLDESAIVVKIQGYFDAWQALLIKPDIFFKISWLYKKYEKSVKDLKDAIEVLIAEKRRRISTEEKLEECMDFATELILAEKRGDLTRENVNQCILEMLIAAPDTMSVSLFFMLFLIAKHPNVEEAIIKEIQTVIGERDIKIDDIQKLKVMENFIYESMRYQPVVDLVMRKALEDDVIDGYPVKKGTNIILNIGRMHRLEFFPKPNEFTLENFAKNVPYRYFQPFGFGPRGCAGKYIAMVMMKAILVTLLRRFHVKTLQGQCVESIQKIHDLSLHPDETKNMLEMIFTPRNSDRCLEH

[3] = tested on: Lung; assay: Drug level in Swiss albino mouse lung at 5 mg/kg, po after 48 hrs assessed as relative Cmax level relative to plasma drug level by HPLC/MS/MS method; type: ADME, organism-based; conditions: in vivo
[4] = tested on: Brain; assay: Drug level in Swiss albino mouse brain at 5 mg/kg, po after 48 hrs assessed as relative Cmax level relative to plasma drug level by HPLC/MS/MS method; type: ADME, organism-based
[5] = tested on: Brain; assay: Drug level in Swiss albino mouse brain at 5 mg/kg, po after 48 hrs assessed as relative AUC (48 hrs) level relative to plasma drug level by HPLC/MS/MS method; type: ADME, organism-based
[6] = biological target: Lanosterol 14-alpha demethylase (Candida albicans (strain SC5314 / ATCC MYA-2876) (Yeast), UniProt P10613); assay: Inhibition of CYP51 in Candida albicans assessed as inhibition of microbe growth incubated for 48 hrs by CLSI M27-A3 guideline based method
[7] = biological target: T2, Steroid 17-alpha-hydroxylase/17,20 lyase (Homo sapiens, UniProt P05093); assay: Inhibition of CYP17 hydroxylase in human hepatocyte microsomes using pregnenolone substrate by HPLC/MS/MS method; type: ADME
T2 sequence (P05093 whole entry): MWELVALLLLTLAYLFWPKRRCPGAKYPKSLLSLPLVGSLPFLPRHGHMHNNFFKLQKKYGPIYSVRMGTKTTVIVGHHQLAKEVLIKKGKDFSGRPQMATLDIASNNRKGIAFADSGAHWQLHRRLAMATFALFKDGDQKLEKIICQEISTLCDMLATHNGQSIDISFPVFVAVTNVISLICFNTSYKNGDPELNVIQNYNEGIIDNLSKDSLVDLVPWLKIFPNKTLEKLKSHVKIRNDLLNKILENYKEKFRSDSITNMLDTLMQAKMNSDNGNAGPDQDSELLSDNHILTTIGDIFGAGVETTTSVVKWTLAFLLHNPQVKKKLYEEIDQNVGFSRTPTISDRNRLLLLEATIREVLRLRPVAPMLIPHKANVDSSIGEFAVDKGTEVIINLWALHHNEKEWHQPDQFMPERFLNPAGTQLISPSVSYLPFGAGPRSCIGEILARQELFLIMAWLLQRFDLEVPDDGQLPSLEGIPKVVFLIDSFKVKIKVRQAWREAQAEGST

[8] = Half life in Swiss albino mouse plasma at 5 mg/kg, po measured during 0.5 to 48 hrs post dose by HPLC/MS/MS method; type: ADME, organism-based
[9] = biological target: Cytochrome P450 2C9 (Homo sapiens, UniProt P11712); assay: Inhibition of CYP2C9 in human hepatocyte microsomes using diclofenac substrate by HPLC/MS/MS method; type: ADME
[10] = tested on: Kidney; assay: Drug level in Swiss albino mouse kidney at 5 mg/kg, po after 48 hrs assessed as relative Cmax level relative to plasma drug level by HPLC/MS/MS method; type: ADME, organism-based; conditions: other tissue
[11] = biological target: Cytochrome P450 2C19, Homo sapiens (UniProt P33261); assay: Inhibition of CYP2C19 in human hepatocyte microsomes using omeprazole substrate by HPLC/MS/MS method
[12] = Half life in Swiss albino mouse lung at 5 mg/kg, po measured during 0.5 to 48 hrs post dose by HPLC/MS/MS method; type: ADME, organism-based
[13] = biological target: T3, Cytochrome P450 11B2, mitochondrial (Homo sapiens, UniProt P19099); assay: Inhibition of CYP11B2 in human hepatocyte microsomes using deoxycorticosteroid substrate by HPLC/MS/MS method; type: ADME
T3 sequence (P19099 whole entry): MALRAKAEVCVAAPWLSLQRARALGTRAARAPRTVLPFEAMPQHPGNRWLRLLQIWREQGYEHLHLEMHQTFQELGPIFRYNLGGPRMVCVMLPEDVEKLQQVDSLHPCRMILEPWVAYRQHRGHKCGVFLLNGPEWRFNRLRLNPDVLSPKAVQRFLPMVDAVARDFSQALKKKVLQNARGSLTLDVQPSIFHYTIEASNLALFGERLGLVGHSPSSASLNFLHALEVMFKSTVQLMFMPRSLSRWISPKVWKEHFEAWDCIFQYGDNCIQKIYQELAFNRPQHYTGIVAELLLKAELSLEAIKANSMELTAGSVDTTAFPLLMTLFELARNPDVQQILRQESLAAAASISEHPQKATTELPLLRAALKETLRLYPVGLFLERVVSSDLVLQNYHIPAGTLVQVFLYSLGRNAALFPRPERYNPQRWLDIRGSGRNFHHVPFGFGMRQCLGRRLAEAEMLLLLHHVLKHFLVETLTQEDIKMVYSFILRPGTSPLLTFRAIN

[14] = biological target: T2, Steroid 17-alpha-hydroxylase/17,20 lyase; assay: Inhibition of CYP17 lyase in human hepatocyte microsomes using 17a-hydroxypregnenolone substrate by HPLC/MS/MS method; type: ADME

Chain of Cytochrome P450 2C19, Homo sapiens (P33261 whole entry, looked up): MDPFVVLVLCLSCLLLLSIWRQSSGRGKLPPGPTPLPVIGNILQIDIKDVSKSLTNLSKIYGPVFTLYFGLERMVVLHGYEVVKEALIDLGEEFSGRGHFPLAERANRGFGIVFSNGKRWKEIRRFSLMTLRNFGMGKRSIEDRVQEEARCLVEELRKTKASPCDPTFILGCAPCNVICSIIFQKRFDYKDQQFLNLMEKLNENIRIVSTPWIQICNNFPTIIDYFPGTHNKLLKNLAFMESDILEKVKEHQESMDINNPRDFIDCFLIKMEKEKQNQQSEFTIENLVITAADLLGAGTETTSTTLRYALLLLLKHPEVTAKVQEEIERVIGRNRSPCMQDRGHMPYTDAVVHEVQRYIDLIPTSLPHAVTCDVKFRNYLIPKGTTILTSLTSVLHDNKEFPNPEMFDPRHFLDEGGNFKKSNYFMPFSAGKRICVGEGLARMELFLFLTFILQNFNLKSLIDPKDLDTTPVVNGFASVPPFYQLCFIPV
Chain of Cytochrome P450 2C9 (P11712 whole entry): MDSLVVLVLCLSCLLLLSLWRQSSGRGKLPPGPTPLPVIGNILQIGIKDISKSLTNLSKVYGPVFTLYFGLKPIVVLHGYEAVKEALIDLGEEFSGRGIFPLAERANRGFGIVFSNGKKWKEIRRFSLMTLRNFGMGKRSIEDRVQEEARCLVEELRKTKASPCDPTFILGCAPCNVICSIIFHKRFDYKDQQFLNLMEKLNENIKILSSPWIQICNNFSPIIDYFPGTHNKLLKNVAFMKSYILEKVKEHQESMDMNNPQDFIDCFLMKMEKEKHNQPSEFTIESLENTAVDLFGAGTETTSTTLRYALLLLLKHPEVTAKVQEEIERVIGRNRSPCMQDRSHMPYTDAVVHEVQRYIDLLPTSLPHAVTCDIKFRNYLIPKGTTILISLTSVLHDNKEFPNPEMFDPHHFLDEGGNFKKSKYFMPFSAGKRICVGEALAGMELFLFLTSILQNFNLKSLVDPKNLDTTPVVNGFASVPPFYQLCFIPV
Chain of Lanosterol 14-alpha demethylase (P10613 whole entry): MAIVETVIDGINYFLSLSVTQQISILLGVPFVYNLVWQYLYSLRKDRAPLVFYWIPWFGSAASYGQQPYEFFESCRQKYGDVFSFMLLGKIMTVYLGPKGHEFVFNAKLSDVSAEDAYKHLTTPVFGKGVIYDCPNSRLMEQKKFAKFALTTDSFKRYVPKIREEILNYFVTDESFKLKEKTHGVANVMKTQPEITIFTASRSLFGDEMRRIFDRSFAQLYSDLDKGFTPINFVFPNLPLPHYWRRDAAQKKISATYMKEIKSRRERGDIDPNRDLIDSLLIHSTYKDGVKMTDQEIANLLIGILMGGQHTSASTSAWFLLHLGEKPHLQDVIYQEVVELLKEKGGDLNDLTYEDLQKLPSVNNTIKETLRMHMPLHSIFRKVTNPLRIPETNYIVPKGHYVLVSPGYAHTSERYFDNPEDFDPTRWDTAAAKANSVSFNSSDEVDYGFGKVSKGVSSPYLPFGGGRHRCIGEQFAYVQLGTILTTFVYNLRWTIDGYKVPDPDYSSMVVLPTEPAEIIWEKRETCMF

- half-life [1]: 16 to 19 h
- IC50 [2]: > 100 µM
- Drug uptake [3]: 116%
- Drug uptake [4]: 58%
- Drug uptake [5]: 65%
- MIC50 [6]: 7.8 ng/mL
- IC50 [7]: > 100 µM
- half-life [8]: 24 h
- IC50 [9]: > 200 µM
- Drug uptake [10]: 270%
- IC50 [11]: 138 µM
- half-life [12]: 16 to 19 h
- IC50 [13]: > 100 µM
- IC50 [14]: 38 µM
SMILES: N#Cc1ccc(COc2ccc(C#Cc3ccc(C(F)(F)C(O)(Cn4cnnn4)c4ccc(F)cc4F)nc3)cc2)cc1 (single isomer, unassigned; (+))
